A word on the IC50: it is the concentration at which inhibition is half-maximal.

For this assay, the target named is T1, Recombinant autotaxin (Homo sapiens, UniProt Q13822).
T1 construct: made in house; host or cells: Hi5 insect cells (baculovirus)
In words: Autotaxin assay (Amplex Red, LPC substrate). Format: biochemical. As to conditions: recombinant autotaxin, LPC substrate, Amplex Red detection; values given as upper bounds. The method in brief: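 Recombinant autotaxin (Hi5 baculovirus, 16 ng) pre-incubated with compound 30 min at 22° C, then reacted with 75 μM egg LPC for 90 min at 37° C. Choline released is coupled to H2O2 and Amplex Red fluorescence (ex 485/em 612 nm). IC50 from ten 1:3 dilutions from 30 μM, duplicates, normalised to 500 μM C14 LPA.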
For the molecule `O=C(OCc1cc(F)c(F)c(Cl)c1)N1CCN(C2CCN(C(=O)c3ccc4[nH]nnc4c3)CC2)CC1` [Compound 116, 4-[1-(1H-Benzotriazole-5-carbonyl)-piperidin-4-yl]-piperazine-1-carboxylic acid 3-chloro-4,5-difluoro-benzyl ester], the IC50 was < 1 µM.
With `O=C(Nc1ccc2[nH]c(=O)oc2c1)c1cncc(N2CCN(C(=O)OCc3ccc(Cl)cc3)CC2)c1` [Compound 5, 4-[5-(2-Oxo-2,3-dihydro-benzooxazol-6-ylcarbamoyl)-pyridin-3-yl]-piperazine-1-carboxylic acid 4-chloro-benzyl ester] the figure was < 10 µM; with `O=C(OCc1ccc(C(F)(F)F)cc1)N1CCN(C2CCN(C(=O)c3ccc4[nH]nnc4c3)CC2)CC1` [Compound 34, 4-[1-(1H-Benzotriazole-5-carbonyl)-piperidin-4-yl]-piperazine-1-carboxylic acid 4-trifluoromethyl-benzyl ester], < 1 µM.
As to `Cc1ccc(C(OC(=O)N2CCN(C3CCN(C(=O)c4ccc5[nH]nnc5c4)CC3)CC2)(C(F)(F)F)C(F)(F)F)cc1` [Compound 170, 4-[1-(1H-Benzotriazole-5-carbonyl)-piperidin-4-yl]-piperazine-1-carboxylic acid 2,2,2-trifluoro-1-p-tolyl-1-trifluoromethyl-ethyl ester], the IC50 was < 10 µM.
For the molecule `O=C(OCc1ccc(C(F)(F)F)cc1F)N1CCC(N2CCN(C(=O)c3ccc4[nH]nnc4c3)CC2)CC1` [Compound 73, 4-[4-(1H-Benzotriazole-5-carbonyl)-piperazin-1-yl]-piperidine-1-carboxylic acid 2-fluoro-4-trifluoromethyl-benzyl ester], the IC50 was < 1 µM.
In the case of `O=C(CCc1ccc(Cl)cc1F)N1CCC(N2CCN(C(=O)c3ccc4[nH]nnc4c3)CC2)CC1` [Compound 61, 1-{4-[4-(1H-Benzotriazole-5-carbonyl)-piperazin-1-yl]-piperidin-1-yl}-3-(4-chloro-2-fluoro-phenyl)-propan-1-one], the IC50 was < 10 µM.
For `O=C(OCc1ccc(OC(F)(F)F)cc1)N1CCN(C2CCN(C(=O)c3ccc4[nH]nnc4c3)CC2)CC1` [Compound 47, 4-[1-(1H-Benzotriazole-5-carbonyl)-piperidin-4-yl]-piperazine-1-carboxylic acid 4-trifluoromethoxy-benzyl ester], the IC50 is < 1 µM.
On to `O=C(OCc1ccc(C(F)(F)F)cc1)N1CCN(C2CCN(C(=O)c3ccc4[nH]c(=S)[nH]c4c3)CC2)CC1` [Compound 127, 4-[1-(2-Thioxo-2,3-dihydro-1H-benzoimidazole-5-carbonyl)-piperidin-4-yl]-piperazine-1-carboxylic acid 4-trifluoromethyl-benzyl ester], for which the IC50 was < 10 µM.
With `O=C(/C=C/c1c[nH]cn1)N1CCN(C2CCN(C(=O)CCc3ccc(C(F)(F)F)cc3)CC2)CC1` [Compound 58, (E)-3-(3H-Imidazol-4-yl)-1-(4-{1-[3-(4-trifluoromethyl-phenyl)-propionyl]-piperidin-4-yl}-piperazin-1-yl)-propenone], the IC50 is < 10 µM.
Turning to `Cc1ccc(COC(=O)N2CCN(C3CCN(C(=O)c4ccc5[nH]nnc5c4)CC3)CC2)cc1` [Compound 40, 4-[1-(1H-Benzotriazole-5-carbonyl)-piperidin-4-yl]-piperazine-1-carboxylic acid 4-methyl-benzyl ester], the concentration for half-maximal inhibition (IC50) is < 10 µM.
On to `O=C(OCc1cc(Cl)cc(C(F)(F)F)c1)N1CCC(N2CCN(C(=O)c3ccc4[nH]nnc4c3)CC2)CC1` [Compound 77, 4-[4-(1H-Benzotriazole-5-carbonyl)-piperazin-1-yl]-piperidine-1-carboxylic acid 3-chloro-5-trifluoromethyl-benzyl ester], for which the IC50 is < 1 µM.
On to `CC(C)c1ccc(COC(=O)N2CCN(C3CCN(C(=O)c4ccc5[nH]nnc5c4)CC3)CC2)cc1` [Compound 43, 4-[1-(1H-Benzotriazole-5-carbonyl)-piperidin-4-yl]-piperazine-1-carboxylic acid 4-isopropyl-benzyl ester], for which the IC50 is < 1 µM.
For the molecule `O=C(OCc1ccc(C(F)(F)F)cc1)N1CCC(NC2CCN(C(=O)c3ccc4[nH]nnc4c3)CC2)C1` (stereo not drawn) [Compound 68, 3-[1-(1H-Benzotriazole-5-carbonyl)-piperidin-4-ylamino]-pyrrolidine-1-carboxylic acid 4-trifluoromethyl-benzyl ester], the IC50 is < 10 µM.
Take `Cc1ccc(-c2cccc(C(=O)N3CCC(C4CCN(C(=O)c5ccc6[nH]nnc6c5)CC4)CC3)c2)cc1` [Compound 13, [1′-(1H-Benzotriazole-5-carbonyl)-[4,4′]bipiperidinyl-1-yl]-(4′-methyl-biphenyl-3-yl)-methanone]: the IC50 was < 10 µM.
Consider `O=C(CCc1ccc(Cl)cc1F)N1CCN(C2CCN(C(=O)c3ccc4[nH]c(=O)oc4c3)CC2)CC1` [Compound 64, 6-(4-{4-[3-(4-Chloro-2-fluoro-phenyl)-propionyl]-piperazin-1-yl}-piperidine-1-carbonyl)-3H-benzooxazol-2-one], for which the IC50 was < 10 µM.
On to `COc1ccc(Cl)cc1NC(=O)CN1CCC(N2CCN(C(=O)c3ccc4[nH]nnc4c3)CC2)CC1` [Compound 181, 2-{4-[4-(1H-Benzotriazole-5-carbonyl)-piperazin-1-yl]-piperidin-1-yl}-N-(5-chloro-2-methoxy-phenyl)-acetamide], for which the half-maximal inhibitory concentration (IC50) is < 10 µM.
On to `O=C(CCc1ccccc1O)N1CCC(N2CCN(C(=O)c3ccccc3-c3cccc(C(F)(F)F)c3)CC2)CC1` [Compound 21, 3-(2-Hydroxy-phenyl)-1-{4-[4-(3′-trifluoromethyl-biphenyl-2-carbonyl)-piperazin-1-yl]-piperidin-1-yl}-propan-1-one], for which the IC50 is < 1 µM.
As for `O=C(OCc1ccc(OC(F)F)cc1)N1CCN(C2CCN(C(=O)c3ccc4[nH]nnc4c3)CC2)CC1` [Compound 167, 4-[1-(1H-Benzotriazole-5-carbonyl)-piperidin-4-yl]-piperazine-1-carboxylic acid 4-difluoromethoxy-benzyl ester], the figure is < 1 µM; as for `O=C(OCc1c(F)cc(Br)cc1F)N1CCN(C2CCN(C(=O)c3ccc4[nH]nnc4c3)CC2)CC1` [Compound 157, 4-[1-(1H-Benzotriazole-5-carbonyl)-piperidin-4-yl]-piperazine-1-carboxylic acid 4-bromo-2,6-difluoro-benzyl ester], < 10 µM; as for `O=C(OCc1cc(Cl)cc(Br)c1)N1CCN(C2CCN(C(=O)c3ccc4[nH]nnc4c3)CC2)CC1` [Compound 146, 4-[1-(1H-Benzotriazole-5-carbonyl)-piperidin-4-yl]-piperazine-1-carboxylic acid 3-bromo-5-chloro-benzyl ester], < 1 µM.
As for `O=C(Cc1cc(C(F)(F)F)cc(C(F)(F)F)c1)N1CCN(C2CCN(C(=O)c3ccc4[nH]c(=O)oc4c3)CC2)CC1` [Compound 142, 6-(4-{4-[2-(3,5-Bis-trifluoromethyl-phenyl)-acetyl]-piperazin-1-yl}-piperidine-1-carbonyl)-3H-benzooxazol-2-one], the IC50 is < 10 µM.
With `O=C(NC1CCN(C2CCN(C(=O)OCc3cc(Cl)cc(Cl)c3)CC2)C1)c1ccc2[nH]nnc2c1` (stereo not drawn) [Compound 9, 4-{3-[(1H-Benzotriazole-5-carbonyl)-amino]-pyrrolidin-1-yl}-piperidine-1-carboxylic acid 3,5-dichloro-benzyl ester], the half-maximal inhibitory concentration (IC50) was < 1 µM.
As to `COc1cc(COC(=O)N2CCN(C3CCN(C(=O)c4ccc5[nH]nnc5c4)CC3)CC2)cc(OC)c1OC` [Compound 121, 4-[1-(1H-Benzotriazole-5-carbonyl)-piperidin-4-yl]-piperazine-1-carboxylic acid 3,4,5-trimethoxy-benzyl ester], the IC50 is < 30 µM.
On to `O=C(NC1CCC(N2CCN(C(=O)OCc3cc(C(F)(F)F)cc(C(F)(F)F)c3)CC2)CC1)c1ccc2[nH]nnc2c1` (stereo not drawn) [Compound 186, 4-{4-[(1H-Benzotriazole-5-carbonyl)-amino]-cyclohexyl}-piperazine-1-carboxylic acid 3,5-bis-trifluoromethyl-benzyl ester], for which the IC50 was < 1 µM.
Turning to `O=C(CCc1ccc(C(F)(F)F)cc1)N1CCN(C2CCN(C(=O)c3ccc4[nH]nnc4c3)CC2)CC1` [Compound 32, 1-{4-[1-(1H-Benzotriazole-5-carbonyl)-piperidin-4-yl]-piperazin-1-yl}-3-(4-trifluoromethyl-phenyl)-propan-1-one], the IC50 was < 1 µM.
Consider `O=C(Cc1ccc(Cl)cc1)N1CCC(C2CCN(C(=O)c3ccc4[nH]nnc4c3)CC2)CC1` [Compound 23, 1-[1′-(1H-Benzotriazole-5-carbonyl)-[4,4′]bipiperidinyl-1-yl]-2-(4-chloro-phenyl)-ethanone], for which the IC50 is < 30 µM.
With `O=C(OCc1ccc(Cl)cc1F)N1CCN(C2CCN(C(=O)c3ccc4[nH]c(=O)oc4c3)CC2)CC1` [Compound 65, 4-[1-(2-Oxo-2,3-dihydro-benzooxazole-6-carbonyl)-piperidin-4-yl]-piperazine-1-carboxylic acid 4-chloro-2-fluoro-benzyl ester] the figure was < 1 µM.
On to `O=C(OCc1ccc(Cl)c(Cl)c1)N1CCN(C2CCN(C(=O)c3ccc4[nH]nnc4c3)CC2)CC1` [Compound 45, 4-[1-(1H-Benzotriazole-5-carbonyl)-piperidin-4-yl]-piperazine-1-carboxylic acid 3,4-dichloro-benzyl ester], for which the IC50 was < 1 µM.
For the molecule `O=C(OCc1cc(C(F)(F)F)cc(C(F)(F)F)c1)N1CCC(N2CCN(C(=O)c3ccc4[nH]nnc4c3)CC2)CC1` [Compound 162, 4-[4-(1H-Benzotriazole-5-carbonyl)-piperazin-1-yl]-piperidine-1-carboxylic acid 3,5-bis-trifluoromethyl-benzyl ester], the IC50 was < 1 µM.
On to `O=C(CCc1ccc(Cl)cc1Cl)N1CCC(N2CCN(C(=O)c3ccc4[nH]nnc4c3)CC2)CC1` [Compound 82, 1-{4-[4-(1H-Benzotriazole-5-carbonyl)-piperazin-1-yl]-piperidin-1-yl}-3-(2,4-dichloro-phenyl)-propan-1-one], for which the IC50 is < 10 µM.
